Twelve compounds from ChEMBL document CHEMBL1201862, “PubChem BioAssay data set” (2004) can be followed below.

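Dose response: 5 concentrations. Exposure: 48 h. Format: 96-well plates. Endpoint: linear interpolation; highest concentration if not reached. GI50 = concentration required for 50% inhibition of growth.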 Calls of active or inactive are those of the source. Cut-off read from the data, not from the text of the source: active = GI50 up to about 1.1 µM and inactive = higher. Where only a bound is given, the exact number is not on record here.

Common to all, as to assay: NCI-60 cell line screen, 48 h
Assay [1] relates to HT-29.
The test system of assay [2] is HCT-116.
The subject of assay [3] is MDA-MB-435.
For assay [4], the system named is SK-MEL-28.
Assay [5] concerns CAKI-1.
Assay [6] concerns SK-MEL-2.
The test system of assay [7] is HL-60.
The subject of assay [8] is KM12.
The subject of assay [9] is TK-10.
Assay [10] has as its system OVCAR-4.
Assay [11] concerns PC-3.
In assay [12] the test system is SF-268.
The subject of assay [13] is RXF 393.
Assay [14] relates to NCI-H23.
In assay [15] the test system is NCI-H460.
Assay [16] has as its system EKVX.
In assay [17] the test system is COLO 205.
Assay [18] has as its system OVCAR-8.
Assay [19] concerns NCI/ADR-RES.

On to `CCOC(=O)Nc1sc2c(c1C#N)CCCC2`, for which the GI50 in assay [1] is > 100 µM (inactive); in assay [2] it was 74.1 µM (inactive); in assay [3], 48.2 µM (inactive); in assay [4], > 100 µM (inactive); in assay [5] it was > 100 µM (inactive); in assay [6], > 100 µM (inactive). Also, the GI50 was 45.3 µM (inactive) in [7]; 25.9 µM (inactive) in assay [8]; > 100 µM (inactive) in assay [9]; > 100 µM (inactive) in assay [10]; 66.4 µM (inactive) in [11]; > 100 µM (inactive) in assay [12]. Also, the GI50 in assay [13] was > 100 µM (inactive); in assay [14], > 100 µM (inactive); in assay [15] it was > 100 µM (inactive); in assay [16], 25.9 µM (inactive); in assay [17] it was > 100 µM (inactive).

As to `O=C1C(=Cc2c(O)cc(O)cc2O)C(=O)c2ccccc21`, the GI50 in assay [1] is > 42.1 µM (inactive); in assay [2], > 39.3 µM (inactive); in [4], > 45.8 µM (inactive); in assay [5] it was > 45.9 µM (inactive); in assay [6], > 40.1 µM (inactive); in assay [7], 16.8 µM (inactive). The GI50 in assay [8] was > 36.7 µM (inactive); in assay [9], > 46.6 µM (inactive); in assay [10] it was > 48.2 µM (inactive); in assay [18] it was > 41.7 µM (inactive); in assay [12], > 45.4 µM (inactive); in assay [13] it was 14.3 µM (inactive). The GI50 is > 39.4 µM (inactive) in assay [14], > 45.5 µM (inactive) in assay [15], > 79.8 µM (inactive) in assay [16] and > 41.5 µM (inactive) in assay [17].

Regarding `N#C/C(=C1\OC(=N)C(c2ccccc2)C1=O)c1ccccc1` (stereo unspecified), the GI50 is 22.5 µM (inactive) in assay [1]; 17.6 µM (inactive) in [2]; 13.3 µM (inactive) in assay [4]; 30.6 µM (inactive) in assay [5]; > 52.2 µM (inactive) in [6]; 23.4 µM (inactive) in assay [7]. The GI50 in [8] is 48.2 µM (inactive); in [9] it was 29.7 µM (inactive); in assay [10], 40.1 µM (inactive); in assay [18], 27.9 µM (inactive); in [12] it was 48.3 µM (inactive); in assay [13], 17.9 µM (inactive). In addition, the GI50 was > 10 µM (inactive) in [14], > 100 µM (inactive) in assay [15], 36.5 µM (inactive) in [16] and 22.6 µM (inactive) in [17].

Turning to `Cn1cc(C(=O)c2ccccc2)c2ccccc2c1=O`, the GI50 in [1] is > 100 µM (inactive); in [2] it was > 100 µM (inactive); in assay [4], > 100 µM (inactive); in assay [5] it was 50.6 µM (inactive); in assay [6] it was > 100 µM (inactive); in assay [7] it was 24.8 µM (inactive). For the same compound, the GI50 in assay [8] was > 100 µM (inactive); in [9], 73.1 µM (inactive); in assay [10], > 100 µM (inactive); in assay [18], > 100 µM (inactive); in [12], > 100 µM (inactive); in assay [13], > 100 µM (inactive). For the same compound, the GI50 in assay [15], in [16] and in assay [17] was > 100 µM (inactive) in each case.

As for `O=C1CN(c2ccccc2)C(=O)CN1CCN1CC(=O)N(c2ccccc2)CC1=O`, the GI50 in [1], in assay [2], in [3], in assay [4], in assay [5] and in [7] was > 100 µM (inactive) throughout. For the same compound, the GI50 in assay [8], in assay [9], in assay [10], in [18], in assay [11] and in assay [12] was > 100 µM (inactive) each time. The GI50 in assay [13], in assay [14], in assay [15], in assay [16] and in assay [17] was > 100 µM (inactive) throughout.

For `CCOC(=O)C1([Se]c2ccccc2)CCCC1=O` (stereo unspecified), the GI50 was 37.8 µM (inactive) in assay [1]; 15.5 µM (inactive) in assay [2]; 18.9 µM (inactive) in [4]; 44.5 µM (inactive) in assay [5]; 32.8 µM (inactive) in assay [6]; 4.78 µM (inactive) in assay [7]. Besides, the GI50 in assay [8] is 30.9 µM (inactive); in [9] it was 77.6 µM (inactive); in assay [10] it was 18.8 µM (inactive); in assay [18], 16.8 µM (inactive); in assay [12], 11.7 µM (inactive); in assay [13], 7.82 µM (inactive). In addition, the GI50 in assay [14] is 17.4 µM (inactive); in assay [15] it was 27.9 µM (inactive); in assay [16], 23.6 µM (inactive); in assay [17], 16 µM (inactive).

Take `OCC1OC(c2ccccc2)CC1O` (stereo unspecified): the GI50 in assay [1], in assay [2], in assay [3], in assay [4], in assay [5] and in [6] was > 100 µM (inactive) throughout. Moreover, the GI50 in assay [7], in [8], in assay [9], in assay [10], in [18] and in assay [19] was > 100 µM (inactive) in each case. The GI50 in assay [13], in assay [15], in assay [16] and in assay [17] was > 100 µM (inactive) in each case.

On to `COCOC1C=CCCCC2=CC(C)=C(CC1)O2` (stereo unspecified), for which the GI50 was 99.1 µM (inactive) in [1]; > 100 µM (inactive) in assay [2]; > 100 µM (inactive) in [3]; > 100 µM (inactive) in assay [4]; > 100 µM (inactive) in assay [5]; > 100 µM (inactive) in assay [8]. Besides, the GI50 in assay [9], in [10], in assay [18], in assay [11], in assay [19] and in assay [12] was > 100 µM (inactive) each time. Also, the GI50 in [13], in assay [14], in [15], in assay [16] and in assay [17] was > 100 µM (inactive) in each case.

Consider `CN1CCc2cc3c4cc2C1Cc1ccc(cc1)Oc1cc(ccc1O)CC1c2c(cc(O)c(c2O4)O3)CCN1C` (stereo unspecified), for which the GI50 is 2.8 µM (inactive) in assay [1]; 1.41 µM (inactive) in assay [2]; 1.8 µM (inactive) in assay [4]; 10.5 µM (inactive) in assay [5]; 1.67 µM (inactive) in assay [6]; 4.65 µM (inactive) in [7]. In addition, the GI50 is 1.86 µM (inactive) in assay [8]; 10.6 µM (inactive) in assay [9]; 2.22 µM (inactive) in [10]; 2.86 µM (inactive) in assay [18]; 2.16 µM (inactive) in [12]; 3.24 µM (inactive) in assay [13]. Further, the GI50 in assay [14] is 3.6 µM (inactive); in assay [15], 1.87 µM (inactive); in [16] it was 7.08 µM (inactive); in [17], 5.65 µM (inactive).

On to `COc1ccc(OC)c2cc(C3(C)SCCCS3)ccc12`, for which the GI50 was 40.4 µM (inactive) in [1]; 83.4 µM (inactive) in assay [2]; > 100 µM (inactive) in assay [4]; 61 µM (inactive) in assay [5]; > 100 µM (inactive) in [6]; 59.3 µM (inactive) in [7]. Also, the GI50 is > 100 µM (inactive) in [8]; > 100 µM (inactive) in assay [9]; 60.3 µM (inactive) in [10]; > 100 µM (inactive) in assay [18]; > 100 µM (inactive) in assay [12]; 20.5 µM (inactive) in assay [13]. Besides, the GI50 in assay [14] is 84.3 µM (inactive); in [15], 78.3 µM (inactive); in assay [16], > 100 µM (inactive); in [17], > 100 µM (inactive).

As to `COc1ncn(C2C=C(CO)C(O)C2O)c(=O)n1` (stereo unspecified), the GI50 in assay [2] was > 100 µM (inactive); in assay [4], > 100 µM (inactive); in assay [5], < 0.01 µM (active); in assay [6], > 100 µM (inactive); in [7], > 100 µM (inactive); in [8], > 100 µM (inactive). Besides, the GI50 in [9], in [10], in assay [18], in assay [12], in assay [13] and in assay [15] was > 100 µM (inactive) in each case. Besides, the GI50 in [16] and in assay [17] was > 100 µM (inactive) in each case.

In the case of `CCN(CC)CCCNC(=O)c1ccc([N+](=O)[O-])cc1O`, the GI50 in assay [1], in assay [4], in [5], in assay [6], in assay [7] and in assay [8] was > 100 µM (inactive) each time. The GI50 in assay [9], in assay [10], in assay [18], in assay [12], in assay [13] and in assay [14] was > 100 µM (inactive) throughout. For the same compound, the GI50 in assay [15], in assay [16] and in assay [17] was > 100 µM (inactive) in each case.
